Activity calls are given as the source filed them.
How the values were obtained:
Cytochrome P450 2D6 = Cytochrome P450 2D6 (Homo sapiens, UniProt P10635);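 further: CYP2D6 member of a cytochrome P450 panel assay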
Cytochrome P450 2C19 = Cytochrome P450 2C19 (Homo sapiens, UniProt P33261); assay: Cytochrome panel assay with activity outcomes. Panel member name: p450-cyp2c19 Compounds with AC50 equal or less than 10 uM are considered active; format: functional; conditions: read-out: AC50
Bcl-2-related protein A1 = target: T1, Bcl-2-related protein A1 (Mus musculus, UniProt Q07440); format: functional;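 further: confirmatory dose–response counterscreen on Bfl-1, used to check hits from a UBC13 polyubiquitin inhibitor campaign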
T1 sequence (Q07440 whole entry): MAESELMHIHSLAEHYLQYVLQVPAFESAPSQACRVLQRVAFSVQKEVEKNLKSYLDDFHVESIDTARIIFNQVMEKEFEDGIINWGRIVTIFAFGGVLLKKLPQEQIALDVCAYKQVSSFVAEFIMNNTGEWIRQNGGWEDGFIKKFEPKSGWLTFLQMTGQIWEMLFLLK

[1] = target: T2, Ubiquitin-conjugating enzyme E2 N (Homo sapiens, UniProt P61088); format: functional
T2 sequence (P61088 whole entry): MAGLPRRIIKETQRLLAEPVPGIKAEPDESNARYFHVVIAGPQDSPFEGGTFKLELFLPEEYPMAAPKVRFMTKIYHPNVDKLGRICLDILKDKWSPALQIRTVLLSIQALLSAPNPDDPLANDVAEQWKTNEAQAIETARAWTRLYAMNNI

[2] = target: T2, Ubiquitin-conjugating enzyme E2 N; format: functional; remark: listed apart in the source
[3] = target: T3, Neuropeptides B/W receptor type 1 (Homo sapiens, UniProt P48145); assay: Fluorescence-based dose response cell-based high throughput screening assay to identify antagonists of the G-protein coupled receptor 7 (GPR7). [Related pubchem assays: 1952 (Screening assay (GPR7 antagonists).), 1880 (Summary AID.)]; format: functional
T3 sequence (P48145 whole entry): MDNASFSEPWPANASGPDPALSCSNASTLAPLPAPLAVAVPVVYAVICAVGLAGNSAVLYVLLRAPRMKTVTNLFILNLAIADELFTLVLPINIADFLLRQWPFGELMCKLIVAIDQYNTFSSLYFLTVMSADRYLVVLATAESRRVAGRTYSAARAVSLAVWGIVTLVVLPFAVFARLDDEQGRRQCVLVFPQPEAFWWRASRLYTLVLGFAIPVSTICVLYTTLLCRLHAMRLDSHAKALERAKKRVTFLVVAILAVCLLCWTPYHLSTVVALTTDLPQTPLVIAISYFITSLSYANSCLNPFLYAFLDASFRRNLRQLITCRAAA

[4] = target: Melanin-concentrating hormone receptor 1 (Homo sapiens, UniProt Q99705); assay: Fluorescence-based counterscreen for antagonists of the G-protein coupled receptor 7 (GPR7): cell-based high throughput dose response assay to identify antagonists of the melanin-concentrating hormone receptor 1 (MCHR1).; format: functional
[5] = target: T4, Microphthalmia-associated transcription factor (Homo sapiens, UniProt O75030); assay: TRPM1 promoter luciferase signal decrease, dose response, MITF inhibitor project, cell-based, SK-MEL-5, cherry-picked, set 3 (AID 493073); format: functional
T4 sequence (O75030 whole entry): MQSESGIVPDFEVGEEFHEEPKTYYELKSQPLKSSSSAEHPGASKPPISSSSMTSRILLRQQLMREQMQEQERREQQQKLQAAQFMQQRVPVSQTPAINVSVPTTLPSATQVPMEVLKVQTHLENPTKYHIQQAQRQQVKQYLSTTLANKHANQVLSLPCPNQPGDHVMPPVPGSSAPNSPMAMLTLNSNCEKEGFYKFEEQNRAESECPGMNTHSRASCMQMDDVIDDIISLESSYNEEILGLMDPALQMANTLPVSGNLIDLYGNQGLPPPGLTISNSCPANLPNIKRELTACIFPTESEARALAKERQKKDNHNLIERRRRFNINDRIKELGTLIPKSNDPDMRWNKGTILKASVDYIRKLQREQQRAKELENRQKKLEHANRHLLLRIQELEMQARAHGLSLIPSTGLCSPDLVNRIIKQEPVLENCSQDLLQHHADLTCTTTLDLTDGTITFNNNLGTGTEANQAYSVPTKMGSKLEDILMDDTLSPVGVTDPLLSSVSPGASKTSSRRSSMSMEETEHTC

Chain of Melanin-concentrating hormone receptor 1 (Q99705 whole entry): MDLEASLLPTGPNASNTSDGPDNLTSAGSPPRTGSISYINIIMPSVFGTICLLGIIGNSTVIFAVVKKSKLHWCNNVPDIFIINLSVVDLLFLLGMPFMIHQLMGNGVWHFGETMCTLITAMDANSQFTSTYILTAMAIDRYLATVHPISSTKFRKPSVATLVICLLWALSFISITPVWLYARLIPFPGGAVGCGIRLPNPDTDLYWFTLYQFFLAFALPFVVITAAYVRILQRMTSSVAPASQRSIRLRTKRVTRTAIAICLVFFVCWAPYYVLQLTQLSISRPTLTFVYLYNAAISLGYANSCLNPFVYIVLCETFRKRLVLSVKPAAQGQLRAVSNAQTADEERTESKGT
Chain of Cytochrome P450 2C19 (P33261 whole entry): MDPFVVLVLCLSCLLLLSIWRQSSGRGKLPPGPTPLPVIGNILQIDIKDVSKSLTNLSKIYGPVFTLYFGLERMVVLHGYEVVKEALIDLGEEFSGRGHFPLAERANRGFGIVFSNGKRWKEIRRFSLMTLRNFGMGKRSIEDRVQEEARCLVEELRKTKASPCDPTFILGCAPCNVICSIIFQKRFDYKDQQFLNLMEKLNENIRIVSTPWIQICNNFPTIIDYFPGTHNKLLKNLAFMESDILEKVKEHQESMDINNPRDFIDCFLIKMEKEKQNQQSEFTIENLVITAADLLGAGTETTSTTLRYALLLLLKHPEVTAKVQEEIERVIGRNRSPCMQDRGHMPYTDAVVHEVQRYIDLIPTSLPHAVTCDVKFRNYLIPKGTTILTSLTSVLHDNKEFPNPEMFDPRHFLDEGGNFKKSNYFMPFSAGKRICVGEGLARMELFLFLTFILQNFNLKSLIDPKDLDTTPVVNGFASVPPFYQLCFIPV
Chain of Cytochrome P450 2D6 (P10635 whole entry): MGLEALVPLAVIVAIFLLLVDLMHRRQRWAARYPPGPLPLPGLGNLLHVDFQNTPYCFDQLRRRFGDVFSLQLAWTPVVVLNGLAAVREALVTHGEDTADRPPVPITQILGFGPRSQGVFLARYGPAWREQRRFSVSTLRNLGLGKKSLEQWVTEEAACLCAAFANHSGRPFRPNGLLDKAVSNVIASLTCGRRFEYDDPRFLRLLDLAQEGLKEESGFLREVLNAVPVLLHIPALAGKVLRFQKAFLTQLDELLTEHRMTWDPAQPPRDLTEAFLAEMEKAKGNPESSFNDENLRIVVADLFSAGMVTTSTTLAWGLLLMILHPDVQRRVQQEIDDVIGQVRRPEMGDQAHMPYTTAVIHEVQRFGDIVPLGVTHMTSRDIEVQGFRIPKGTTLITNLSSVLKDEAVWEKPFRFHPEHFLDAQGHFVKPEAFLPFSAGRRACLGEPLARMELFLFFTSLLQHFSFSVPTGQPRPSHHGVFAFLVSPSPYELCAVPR

With `CCOc1ccc(N(CC(=O)NCc2ccc(OC)cc2)S(=O)(=O)c2c(C)noc2C)cc1` the AC50 (Cytochrome P450 2D6) was “inconclusive” and the AC50 (Cytochrome P450 2C19) was 282 nM (inconclusive).
For `C#CCOCCOCCOCCNc1nc(N2CCN(C(=O)[C@H](CCCCN)n3cc([C@@H](N)[C@H](C)CC)nn3)CC2)nc(N2CCN(C(=O)[C@H](CCCCN)n3cc([C@@H](N)CC(N)=O)nn3)CC2)n1`, the IC50 (Bcl-2-related protein A1) was > 20 µM (inactive), the IC50 [1] was 16.6 µM (active) and the IC50 [2] was 10.3 µM (active).
For `CN(c1ccccc1)S(=O)(=O)c1ccc(C(=O)NCCc2ccccc2)cc1`, the IC50 [3] was > 14.6 µM (not active) and the IC50 [4] was 16 µM (not active).
With `[2H]C(CCOS(N)(=O)=O)c1ccc(C(C)(C)C)cc1` (centres undefined) the AC50 [5] was 0.487 µM (active).
For `O=C(CSc1ccc(Cl)cc1)NC1CCCC1`, the AC50 [5] was 14.2 µM (active).

Reference: ChEMBL document CHEMBL1201862, “PubChem BioAssay data set” (2004)
